Key:
[1] = tested on: velvetleaf; experiment: Test Example 4: herbicidal effect by soil treatment (Table 19, symbol M); assay type: in vivo, velvetleaf (Abutilon theophrasti)
In short: (§1)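 Applied as a water-diluted emulsion, the compound was sprayed onto soil covering newly sown seeds. Evaluation came three weeks after application, in a greenhouse held at 25° C. to 30° C.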

[2] = tested on: blackgrass; experiment: Test Example 4: herbicidal effect by soil treatment (Table 19, symbol J); assay type: in vivo, blackgrass (Alopecurus myosuroides)
In short: as §1

[3] = tested on: redroot pigweed; experiment: Test Example 4: herbicidal effect by soil treatment (Table 19, symbol N); assay type: in vivo, redroot pigweed (Amaranthus retroflexus)
In short: as §1

[4] = tested on: lambsquarters; experiment: Test Example 5: herbicidal effect by foliage application, plastic box (Table 20, symbol O); assay type: in vivo, lambsquarters (Chenopodium album); conditions: foliage application, 320 g/ha
In short: (§2)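 Sow seeds spot-wise in sterilized diluvial soil; cover with ~1.5 cm soil. Grow 14 days in greenhouse, 25° C. to 30° C. Spray foliage with emulsion diluted to predetermined amount. Rate effect after 3 weeks.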

[5] = tested on: barnyard grass; experiment: Test Example 5: herbicidal effect by foliage application, plastic box (Table 20, symbol H); assay type: in vivo, barnyard grass (Echinochloa crus-galli); conditions: foliage application, 320 g/ha
In short: as §2

[6] = tested on: Italian ryegrass; experiment: Test Example 5: herbicidal effect by foliage application, plastic box (Table 20, symbol K); assay type: in vivo, Italian ryegrass (Lolium multiflorum); conditions: foliage application, 320 g/ha
In short: as §2

[7] = tested on: green foxtail; experiment: Test Example 5: herbicidal effect by foliage application, plastic box (Table 20, symbol G); assay type: in vivo, green foxtail (Setaria viridis); conditions: foliage application, 320 g/ha
In short: as §2

[8] = tested on: wild oat; experiment: Test Example 4: herbicidal effect by soil treatment (Table 19, symbol I); assay type: in vivo, wild oat (Avena fatua)
In short: as §1

[9] = tested on: lambsquarters; experiment: Test Example 4: herbicidal effect by soil treatment (Table 19, symbol O); assay type: in vivo, lambsquarters (Chenopodium album)
In short: as §1

[10] = tested on: blackgrass; experiment: Test Example 5: herbicidal effect by foliage application, plastic box (Table 20, symbol J); assay type: in vivo, blackgrass (Alopecurus myosuroides); conditions: foliage application, 320 g/ha
In short: as §2

[11] = tested on: persian speedwell; experiment: Test Example 5: herbicidal effect by foliage application, plastic box (Table 20, symbol R); assay type: in vivo, Persian speedwell (Veronica persica); conditions: foliage application, 320 g/ha
In short: as §2

[12] = tested on: velvetleaf; experiment: Test Example 5: herbicidal effect by foliage application, plastic box (Table 20, symbol M); assay type: in vivo, velvetleaf (Abutilon theophrasti); conditions: foliage application, 320 g/ha
In short: as §2

[13] = tested on: Japanese bulrush; experiment: Test Example 1: herbicidal activity, application before weed generation under submerged conditions (Table 16, symbol B); assay type: in vivo, Japanese bulrush (Schoenoplectus juncoides)
In short: (§3)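 Submerged Wagner pots (alluvial soil, 4 cm water) sown with weed seeds and planted with 2.5-leaf rice seedlings; emulsifiable concentrate diluted in water applied to water surface on sowing day. Held in greenhouse at 25-30 °C; injury scored 0-5 by herbicidal rate after three weeks.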

[14] = tested on: late watergrass; experiment: Test Example 1: herbicidal activity, application before weed generation under submerged conditions (Table 16, symbol A); assay type: in vivo, late watergrass (Echinochloa oryzicola)
In short: as §3

[15] = tested on: wild oat; experiment: Test Example 5: herbicidal effect by foliage application, plastic box (Table 20, symbol I); assay type: in vivo, wild oat (Avena fatua); conditions: foliage application, 320 g/ha
In short: as §2

[16] = tested on: southern crabgrass; experiment: Test Example 4: herbicidal effect by soil treatment (Table 19, symbol F); assay type: in vivo, southern crabgrass (Digitaria ciliaris)
In short: as §1

[17] = tested on: barnyard grass; experiment: Test Example 3: herbicidal effect by foliage application, Wagner pot (Table 18, symbol H); assay type: in vivo, barnyard grass (Echinochloa crus-galli); conditions: 320 g/ha
In short: (§4)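 Plants were sown in alluvial soil held under 0.1–0.5 cm standing water and grown 14 days in a greenhouse at 25–30 °C. An emulsifiable formulation, water-diluted to the set dose, was then sprayed onto the foliage, and effects were scored three weeks later using previously defined criteria.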

[18] = tested on: barnyard grass; experiment: Test Example 4: herbicidal effect by soil treatment (Table 19, symbol H); assay type: in vivo, barnyard grass (Echinochloa crus-galli)
In short: as §1

[19] = tested on: windgrass; experiment: Test Example 4: herbicidal effect by soil treatment (Table 19, symbol L); assay type: in vivo, windgrass (Apera spica-venti)
In short: as §1

[20] = tested on: chickweed; experiment: Test Example 4: herbicidal effect by soil treatment (Table 19, symbol P); assay type: in vivo, common chickweed (Stellaria media)
In short: as §1

[21] = tested on: rice flat sedge; experiment: Test Example 3: herbicidal effect by foliage application, Wagner pot (Table 18, symbol E); assay type: in vivo, rice flat sedge (Cyperus iria); conditions: 320 g/ha
In short: as §4

[22] = tested on: oval-leafed pondweed; experiment: Test Example 1: herbicidal activity, application before weed generation under submerged conditions (Table 16, symbol C); assay type: in vivo, oval-leafed pondweed (Monochoria vaginalis)
In short: as §3

[23] = tested on: green foxtail; experiment: Test Example 4: herbicidal effect by soil treatment (Table 19, symbol G); assay type: in vivo, green foxtail (Setaria viridis)
In short: as §1

[24] = tested on: Italian ryegrass; experiment: Test Example 4: herbicidal effect by soil treatment (Table 19, symbol K); assay type: in vivo, Italian ryegrass (Lolium multiflorum)
In short: as §1

[25] = tested on: southern crabgrass; experiment: Test Example 5: herbicidal effect by foliage application, plastic box (Table 20, symbol F); assay type: in vivo, southern crabgrass (Digitaria ciliaris); conditions: foliage application, 320 g/ha
In short: as §2

[26] = tested on: Chinese sprangletop; experiment: Test Example 3: herbicidal effect by foliage application, Wagner pot (Table 18, symbol D); assay type: in vivo, chinese sprangletop (Leptochloa chinensis); conditions: 320 g/ha
In short: as §4

[27] = tested on: persian speedwell; experiment: Test Example 4: herbicidal effect by soil treatment (Table 19, symbol R); assay type: in vivo, Persian speedwell (Veronica persica)
In short: as §1

[28] = tested on: windgrass; experiment: Test Example 5: herbicidal effect by foliage application, plastic box (Table 20, symbol L); assay type: in vivo, windgrass (Apera spica-venti); conditions: foliage application, 320 g/ha, 3 weeks after application
In short: as §2

[29] = amount of applied herbicide 320 g/ha

Cc1nn(C)c(=O)c(-c2c(-c3ccc(OC(C)C#N)cc3)sc3ccccc23)c1O (racemic) [1-236]
M: velvetleaf, herbicidal effect rating ([1]; AAH 320 g/ha): 1 (Herbicidal rate of 5% or more and less than 20%) | J: blackgrass, herbicidal effect rating ([2]; AAH 320 g/ha): 0 (Herbicidal rate of 5% or less (almost no effect)) | N: redroot pigweed, herbicidal effect rating ([3]; AAH 320 g/ha): 5 (Herbicidal rate of 90% or more (almost completely withered)) | effect on lambsquarters (O) ([4]; 3 weeks after application): 5 (Herbicidal rate of 90% or more (almost completely withered)) | effect on barnyard grass (H) ([5]; 3 weeks after application): 5 (Herbicidal rate of 90% or more (almost completely withered)) | effect on Italian ryegrass (K) ([6]; 3 weeks after application): 5 (Herbicidal rate of 90% or more (almost completely withered)) | effect on green foxtail (G) ([7]; 3 weeks after application): 4 (Herbicidal rate of 70% or more and less than 90%) | I: wild oat, herbicidal effect rating ([8]; AAH 320 g/ha): 0 (Herbicidal rate of 5% or less (almost no effect)) | O: lambsquarters, herbicidal effect rating ([9]; AAH 320 g/ha): 4 (Herbicidal rate of 70% or more and less than 90%) | effect on blackgrass (J) ([10]; 3 weeks after application): 4 (Herbicidal rate of 70% or more and less than 90%) | effect on persian speedwell (R) ([11]; 3 weeks after application): 5 (Herbicidal rate of 90% or more (almost completely withered)) | effect on velvetleaf (M) ([12]; 3 weeks after application): 5 (Herbicidal rate of 90% or more (almost completely withered)) | Herbicidal effect on B: Japanese bulrush (grade 0-5) ([13]; 320 g/ha applied herbicide): 0 (Herbicidal rate of 5% or less (almost no effect)) | Herbicidal effect on A: late watergrass (grade 0-5) ([14]; 320 g/ha applied herbicide): 3 (Herbicidal rate of 40% or more and less than 70%) | effect on wild oat (I) ([15]; 3 weeks after application): 5 (Herbicidal rate of 90% or more (almost completely withered)) | F: southern crabgrass, herbicidal effect rating ([16]; AAH 320 g/ha): 4 (Herbicidal rate of 70% or more and less than 90%) | herbicidal effect on H (barnyard grass), rating 0-5 [17]: 5 (Herbicidal rate of 90% or more (almost completely withered)) | H: barnyard grass, herbicidal effect rating ([18]; AAH 320 g/ha): 5 (Herbicidal rate of 90% or more (almost completely withered)) | L: windgrass, herbicidal effect rating ([19]; AAH 320 g/ha): 0 (Herbicidal rate of 5% or less (almost no effect)) | P: chickweed, herbicidal effect rating ([20]; AAH 320 g/ha): 4 (Herbicidal rate of 70% or more and less than 90%) | herbicidal effect on E (rice flat sedge), rating 0-5 [21]: 5 (Herbicidal rate of 90% or more (almost completely withered)) | Herbicidal effect on C: oval-leafed pondweed (grade 0-5) ([22]; 320 g/ha applied herbicide): 0 (Herbicidal rate of 5% or less (almost no effect)) | G: green foxtail, herbicidal effect rating ([23]; AAH 320 g/ha): 4 (Herbicidal rate of 70% or more and less than 90%) | K: Italian ryegrass, herbicidal effect rating ([24]; AAH 320 g/ha): 3 (Herbicidal rate of 40% or more and less than 70%) | effect on southern crabgrass (F) ([25]; 3 weeks after application): 4 (Herbicidal rate of 70% or more and less than 90%) | herbicidal effect on D (Chinese sprangletop), rating 0-5 [26]: 5 (Herbicidal rate of 90% or more (almost completely withered)) | R: persian speedwell, herbicidal effect rating ([27]; AAH 320 g/ha): 4 (Herbicidal rate of 70% or more and less than 90%) | effect on windgrass (L) [28]: 0 (Herbicidal rate of 5% or less (almost no effect))

CCOc1cc(F)ccc1-c1sc2cc(OC)c(Cl)cc2c1-c1c(O)c(C)nn(C)c1=O [5-077]
M: velvetleaf, herbicidal effect grade [1, 29]: 0 (Herbicidal rate of 5% or less (almost no effect)) | J: blackgrass, herbicidal effect grade [2, 29]: 0 (Herbicidal rate of 5% or less (almost no effect)) | N: redroot pigweed, herbicidal effect grade [3, 29]: 3 (Herbicidal rate of 40% or more and less than 70%) | herbicidal effect on lambsquarters (O) ([4]; three weeks after application): 5 (Herbicidal rate of 90% or more (almost completely withered)) | herbicidal effect on barnyard grass (H) ([5]; three weeks after application): 5 (Herbicidal rate of 90% or more (almost completely withered)) | herbicidal effect on Italian ryegrass (K) ([6]; three weeks after application): 0 (Herbicidal rate of 5% or less (almost no effect)) | herbicidal effect on green foxtail (G) ([7]; three weeks after application): 5 (Herbicidal rate of 90% or more (almost completely withered)) | I: wild oat, herbicidal effect grade [8, 29]: 0 (Herbicidal rate of 5% or less (almost no effect)) | O: lambsquarters, herbicidal effect grade [9, 29]: 3 (Herbicidal rate of 40% or more and less than 70%) | herbicidal effect on blackgrass (J) ([10]; three weeks after application): 3 (Herbicidal rate of 40% or more and less than 70%) | herbicidal effect on persian speedwell (R) ([11]; three weeks after application): 4 (Herbicidal rate of 70% or more and less than 90%) | herbicidal effect on velvetleaf (M) ([12]; three weeks after application): 3 (Herbicidal rate of 40% or more and less than 70%) | Herbicidal effect, B: Japanese bulrush [13, 29]: 0 (Herbicidal rate of 5% or less (almost no effect)) | Herbicidal effect, A: late watergrass [14, 29]: 2 (Herbicidal rate of 20% or more and less than 40%) | herbicidal effect on wild oat (I) ([15]; three weeks after application): 3 (Herbicidal rate of 40% or more and less than 70%) | F: southern crabgrass, herbicidal effect grade [16, 29]: 2 (Herbicidal rate of 20% or more and less than 40%) | herbicidal effect on barnyard grass (H) [17]: 5 (Herbicidal rate of 90% or more (almost completely withered)) | H: barnyard grass, herbicidal effect grade [18, 29]: 0 (Herbicidal rate of 5% or less (almost no effect)) | L: windgrass, herbicidal effect grade [19, 29]: 0 (Herbicidal rate of 5% or less (almost no effect)) | P: chickweed, herbicidal effect grade [20, 29]: 0 (Herbicidal rate of 5% or less (almost no effect)) | herbicidal effect on rice flat sedge (E) [21]: 4 (Herbicidal rate of 70% or more and less than 90%) | Herbicidal effect, C: oval-leafed pondweed [22, 29]: 4 (Herbicidal rate of 70% or more and less than 90%) | G: green foxtail, herbicidal effect grade [23, 29]: 0 (Herbicidal rate of 5% or less (almost no effect)) | K: Italian ryegrass, herbicidal effect grade [24, 29]: 0 (Herbicidal rate of 5% or less (almost no effect)) | herbicidal effect on southern crabgrass (F) ([25]; three weeks after application): 5 (Herbicidal rate of 90% or more (almost completely withered)) | herbicidal effect on Chinese sprangletop (D) [26]: 2 (Herbicidal rate of 20% or more and less than 40%) | R: persian speedwell, herbicidal effect grade [27, 29]: 0 (Herbicidal rate of 5% or less (almost no effect))
